According to the supplement of paper PMC11061612:

What was measured:
[1] = tested on: NCI-H1155 (Non-Small Cell Lung Carcinoma); experiment: combination Emax (second highest fraction inhibited in the dose matrix, 72 h); higher = more inhibition; extreme values may be limits of the assay
Method in brief: (§1)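 Cell lines in DMEM/F12 or RPMI with 10% FBS were plated in 1536-well plates, held 24 hours at 37°C, 5% CO2, then given two-drug dose matrices for 72 hours (DMSO typically 0.2%). Viability was read by CellTiter-Glo 2.0 luminescence and scaled as inhibition from 0 (vehicle wells) to 1 (blank wells). Combination Emax is the second-highest inhibition in the matrix; Bliss excess is observed combination effect minus expected EA + EB − EA·EB, EA and EB being single-agent effects.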

[2] = tested on: OVTOKO (Ovarian Carcinoma); experiment: as above
Method in brief: as §1

[3] = tested on: PC-14 (Lung Adenocarcinoma); experiment: Bliss excess, mean over the matrix (fraction); higher = more synergy
Method in brief: as §1

[4] = tested on: NCI-H1563 (Lung Adenocarcinoma); experiment: as above
Method in brief: as §1

[5] = tested on: KYM-1 (Rhabdomyosarcoma); experiment: as above
Method in brief: as §1

[6] = tested on: COLO-684 (Endometrial Carcinoma); experiment: as above
Method in brief: as §1

[7] = tested on: RMG-I (Ovarian Carcinoma); experiment: as above
Method in brief: as §1

[8] = tested on: Caov-3 (Ovarian Carcinoma); experiment: as above
Method in brief: as §1

[9] = tested on: HTC-C3 (Thyroid Gland Carcinoma); experiment: as above
Method in brief: as §1

[10] = tested on: LOUCY (T-Lymphoblastic Leukemia); experiment: as above
Method in brief: as §1

[11] = tested on: RL95-2 (Endometrial Carcinoma); experiment: as above
Method in brief: as §1

[12] = tested on: NCI-H196 (Small Cell Lung Carcinoma); experiment: as above
Method in brief: as §1

[13] = tested on: SK-MM-2 (Plasma Cell Myeloma); experiment: as above
Method in brief: as §1

[14] = tested on: NCI-H810 (Non-Small Cell Lung Carcinoma); experiment: as above
Method in brief: as §1

[15] = tested on: OVTOKO (Ovarian Carcinoma); experiment: as above
Method in brief: as §1

[16] = tested on: SJRH30 (Rhabdomyosarcoma); experiment: as above
Method in brief: as §1

[17] = tested on: Becker (Low Grade Glioma); experiment: as above
Method in brief: as §1

[18] = tested on: AN3-CA (Endometrial Carcinoma); experiment: as above
Method in brief: as §1

[19] = tested on: RT4 (Bladder Carcinoma); experiment: as above
Method in brief: as §1

[20] = tested on: BALL-1 (B-Lymphoblastic Leukemia); experiment: as above
Method in brief: as §1
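Wherever Bliss excess, mean over the matrix is given: after 72 h of two-drug dosing.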

| Compound | combination Emax [1] | combination Emax [2] | Bliss excess [3] | Bliss excess [4] | Bliss excess [5] | Bliss excess [6] | Bliss excess [7] | Bliss excess [8] | Bliss excess [9] | Bliss excess [10] | Bliss excess [11] | Bliss excess [12] | Bliss excess [13] | Bliss excess [14] | Bliss excess [15] | Bliss excess [16] | Bliss excess [17] | Bliss excess [18] | Bliss excess [19] | Bliss excess [20] |
| --- | --- | --- | --- | --- | --- | --- | --- | --- | --- | --- | --- | --- | --- | --- | --- | --- | --- | --- | --- | --- |
| Cc1c2c(nn1C)CSCc1cc(n(C)n1)CSc1cc(c3ccccc3c1)OCCCc1c(C(=O)O)n(C)c3c-2c(Cl)ccc13 [AZD5991] + CC1(C)CCC(CN2CCN(c3ccc(C(=O)NS(=O)(=O)c4ccc(NCC5CCOCC5)c([N+](=O)[O-])c4)c(Oc4cnc5[nH]ccc5c4)c3)CC2)=C(c2ccc(Cl)cc2)C1 [Venetoclax] (first compound max 1 µM, 7x7, partner max 1 µM) | 0.379 | 0.198 | 0.0054 | 0.0236 | 0.0117 | -0.005 | -0.0289 | 0.0262 | -0.0396 | 0.154 | -0.0463 | -0.0251 | 0.0209 | -0.0267 | -0.0027 | 0.0289 | -0.0033 | 0.111 | 0.135 | 0.117 |
| CN(CCO)CC[C@H](CSc1ccccc1)Nc1ccc(S(=O)(=O)NC(=O)c2ccc(N3CCC([C@@H](O)c4ccccc4-c4ccc(Cl)cc4)CC3)cc2)cc1S(=O)(=O)C(F)(F)F [AZD4320] + Cc1cc2ncnn2cc1Nc1ncc2c(n1)n(C1CCOCC1)c(=O)n2C [AZD7648] (first compound max 1 µM, 7x7, partner max 10 µM) | 0.772 | 0.361 | -0.0188 | -0.0322 | -0.018 | -0.0221 | -0.0676 | -0.0199 | 0.0016 | 0.0365 | -0.0186 | -0.0395 | -0.0268 | 0.004 | -0.0393 | -0.0072 | -0.0211 | -0.0057 | -0.004 | 0.0087 |
| Cc1c2c(nn1C)CSCc1cc(n(C)n1)CSc1cc(c3ccccc3c1)OCCCc1c(C(=O)O)n(C)c3c-2c(Cl)ccc13 [AZD5991] + CCN(CCO)CCCOc1ccc2c(Nc3cc(CC(=O)Nc4cccc(F)c4)[nH]n3)ncnc2c1 [AZD2811] (first compound max 1 µM, 7x7, partner max 1 µM) | 0.897 | 0.241 | 0.0381 | -0.0248 | 0.0646 | 0.0271 | 0.0126 | 0.0236 | 0.0318 | -0.0389 | 0.0272 | -0.029 | -0.0451 | 0.114 | 0.0153 | 0.0922 | -0.0165 | 0.0922 | 0.11 | 0.213 |
| Cc1c2c(nn1C)CSCc1cc(n(C)n1)CSc1cc(c3ccccc3c1)OCCCc1c(C(=O)O)n(C)c3c-2c(Cl)ccc13 [AZD5991] + C[C@@H]1COCCN1C2=NC(=NC(=C2)C3(CC3)[S@](=N)(=O)C)C4=C5C=CNC5=NC=C4 [AZD6738] (first compound max 1 µM, 7x7, partner max 10 µM) | 0.849 | 0.452 | 0.0229 | 0.0224 | 0.1 | -0.0426 | 0.0575 | 0.0293 | -0.0103 | -0.0398 | -0.0023 | 0.0443 | -0.0607 | 0.0552 | 0.0404 | 0.0225 | 0.0152 | 0.0454 | 0.0537 | 0.0406 |
| Cc1cc2ncnn2cc1Nc1ncc2c(n1)n(C1CCOCC1)c(=O)n2C [AZD7648] + C[C@@H]1COCCN1C2=NC(=NC(=C2)C3(CC3)[S@](=N)(=O)C)C4=C5C=CNC5=NC=C4 [AZD6738] (first compound max 10 µM, 7x7, partner max 10 µM) | 0.746 | 0.344 | 0.0031 | 0.0367 | 0.0015 | -0.0527 | 0.0557 | 0.0433 | 0.0229 | 0.0271 | 0.024 | 0.0126 | 0.0022 | -0.0367 | 0.0118 | 0.0113 | -0.0207 | 0.0515 | 0.0354 | 0.0025 |
| CC1(C)CCC(CN2CCN(c3ccc(C(=O)NS(=O)(=O)c4ccc(NCC5CCOCC5)c([N+](=O)[O-])c4)c(Oc4cnc5[nH]ccc5c4)c3)CC2)=C(c2ccc(Cl)cc2)C1 [Venetoclax] + Cn1cnc2c(F)c(Nc3ccc(Br)cc3Cl)c(C(=O)NOCCO)cc21 [Selumetinib] (first compound max 1 µM, 7x7, partner max 3 µM) | 0.371 | 0.163 | -0.0229 | 0.0042 | -0.003 | -0.0263 | -0.0727 | -0.0295 | -0.049 | 0.0179 | -0.0313 | -0.044 | 0.0187 | -0.052 | -0.0544 | -0.0199 | -0.008 | -0.0076 | -0.0521 | -0.0026 |
| C=CCn1c(=O)c2cnc(Nc3ccc(N4CCN(C)CC4)cc3)nc2n1-c1cccc(C(C)(C)O)n1 [AZD1775] + O=C(c1cc(Cc2n[nH]c(=O)c3ccccc23)ccc1F)N1CCN(C(=O)C2CC2)CC1 [Olaparib] (first compound max 1 µM, partner max 10 µM) | 0.454 | 0.496 | -0.0248 | -0.0288 | 0.0188 | -0.12 | -0.0105 | -0.0396 | -0.0064 | 0.0492 | -0.0372 | -0.0552 | -0.0471 | -0.038 | -0.0514 | -0.0057 | -0.0254 | 0.0003 | 0.0107 | 0.0054 |
